Results taken from ChEMBL document CHEMBL1145124, “Identification and prediction of promiscuous aggregating inhibitors among known drugs” (J Med Chem, 2003).

How the values were obtained:
[1] = biological target: T1, Malate dehydrogenase, mitochondrial (Sus scrofa, UniProt P00346); assay: Fold decrease in IC50 vs malate dehydrogenase (MDH) on pre-incubation; no change
T1 sequence (P00346 whole entry): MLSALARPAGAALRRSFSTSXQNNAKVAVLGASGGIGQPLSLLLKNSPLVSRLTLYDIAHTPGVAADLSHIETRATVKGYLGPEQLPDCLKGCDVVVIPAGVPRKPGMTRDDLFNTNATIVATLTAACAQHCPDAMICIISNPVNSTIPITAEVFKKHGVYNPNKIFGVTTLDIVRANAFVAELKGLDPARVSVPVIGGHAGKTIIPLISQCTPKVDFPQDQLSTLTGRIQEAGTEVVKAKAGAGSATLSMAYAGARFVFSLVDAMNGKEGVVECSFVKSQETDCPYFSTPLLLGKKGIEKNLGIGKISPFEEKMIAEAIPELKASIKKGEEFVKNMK

Chymotrypsinogen A [2] = biological target: T2, Chymotrypsinogen A (Bos taurus, UniProt P00766); assay: Compound was tested for the inhibition of Chymotrypsinogen
[3] = Mean maximal plasma concentration; format: ADME, organism-based
[4] = biological target: T3, Chymotrypsin-C (Homo sapiens) (UniProt Q99895); assay: Inhibition of chymotrypsin at 250 uM; details: unidentified
T3 sequence (whole entry): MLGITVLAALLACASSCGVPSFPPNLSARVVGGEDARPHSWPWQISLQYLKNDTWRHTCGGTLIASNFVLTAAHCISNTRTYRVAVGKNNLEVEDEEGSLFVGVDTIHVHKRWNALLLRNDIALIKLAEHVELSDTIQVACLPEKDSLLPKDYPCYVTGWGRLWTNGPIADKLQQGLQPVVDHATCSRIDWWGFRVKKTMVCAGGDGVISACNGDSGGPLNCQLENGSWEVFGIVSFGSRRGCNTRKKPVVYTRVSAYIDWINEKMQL

[5] = biological target: Beta-lactamase (Escherichia coli K-12) (UniProt P00811); assay: Inhibition of beta-lactamase at 100 uM
Beta-lactamase (Escherichia coli K-12), sequence (P00811 whole entry): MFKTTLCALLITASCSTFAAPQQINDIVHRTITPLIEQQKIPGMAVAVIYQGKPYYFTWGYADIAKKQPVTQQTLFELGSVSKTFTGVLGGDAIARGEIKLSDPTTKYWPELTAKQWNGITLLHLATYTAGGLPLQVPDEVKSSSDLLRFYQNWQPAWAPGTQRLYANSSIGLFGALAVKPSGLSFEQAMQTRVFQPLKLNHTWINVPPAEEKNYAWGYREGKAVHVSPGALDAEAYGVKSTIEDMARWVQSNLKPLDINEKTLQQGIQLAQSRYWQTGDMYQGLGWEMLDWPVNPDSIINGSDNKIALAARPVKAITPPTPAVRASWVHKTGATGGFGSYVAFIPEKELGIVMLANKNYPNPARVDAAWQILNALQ

[6] = biological target: T4, Malate dehydrogenase, cytoplasmic (Homo sapiens) (UniProt P40925); assay: Inhibition of malate dehydrogenase (MDH) at 400 uM
T4 sequence (whole entry): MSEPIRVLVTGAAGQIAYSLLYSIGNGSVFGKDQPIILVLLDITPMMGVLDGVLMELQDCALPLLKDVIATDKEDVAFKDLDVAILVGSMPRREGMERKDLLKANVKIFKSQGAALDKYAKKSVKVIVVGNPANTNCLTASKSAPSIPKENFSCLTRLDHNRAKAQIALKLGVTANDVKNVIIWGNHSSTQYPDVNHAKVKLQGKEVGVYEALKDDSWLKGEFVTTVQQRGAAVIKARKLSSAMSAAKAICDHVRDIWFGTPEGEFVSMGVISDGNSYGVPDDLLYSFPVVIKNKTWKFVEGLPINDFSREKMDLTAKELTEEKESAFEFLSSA

[7] = biological target: T5, Malate dehydrogenase, mitochondrial (Sus scrofa) (UniProt P00346); assay: Compound was tested for the inhibition of malate dehydrogenase (MDH) at 200 uM
T5 sequence (whole entry): T1 sequence (P00346 whole entry)

Chymotrypsinogen A [8] = biological target: T2, Chymotrypsinogen A; assay: Fold decrease in IC50 vs chymotrypsinogen on pre-incubation; increase
Beta-lactamase [9] = biological target: T6, Beta-lactamase (Escherichia coli K-12, UniProt P00811); assay: Compound was tested for the inhibition of beta-lactamase
T6 sequence (P00811 whole entry): as the sequence (P00811 whole entry) above

[10] = biological target: T5, Malate dehydrogenase, mitochondrial (Sus scrofa); assay: Compound was tested for the inhibition of malate dehydrogenase (MDH) at 50 uM
[11] = biological target: T5, Malate dehydrogenase, mitochondrial (Sus scrofa); assay: Compound was tested for the inhibition of malate dehydrogenase (MDH) at 100 uM
[12] = biological target: Chymotrypsinogen A (Bos taurus) (UniProt P00766); assay: Compound was tested for the inhibition of Chymotrypsinogen at 250 uM (Inhibition is time dependent)
[13] = Topical dosage on […] scabies; format: functional
Beta-lactamase [14] = biological target: T6, Beta-lactamase; assay: Effect of increase in enzyme concentration by 10 times on the inhibition of beta-lactamase by the compound:No inhibition
Beta-lactamase [15] = biological target: T6, Beta-lactamase; assay: Compound was tested for the inhibition beta-lactamase with 0.1 mg/ml saponin:No inhibition
Beta-lactamase [16] = biological target: T6, Beta-lactamase; assay: Effect of pre-incubation with enzyme on the inhibition of beta-lactamase:No inhibition
[17] = biological target: Chymotrypsinogen A (Bos taurus) (UniProt P00766); assay: Compound was tested for the inhibition of Chymotrypsinogen at 400 uM
[18] = biological target: T1, Malate dehydrogenase, mitochondrial; assay: Fold increase in IC50 vs malate dehydrogenase (MDH) with 1 mg/ml saponin; increase

SMILES	inhibition [4] [%]	inhibition [5] [%]	inhibition [6] [%]	other results
COC(=O)C1=C(C)NC(C)=C(C(=O)OCCN(C)Cc2ccccc2)C1c1cccc([N+](=O)[O-])c1 (stereo unspecified) [NICARDIPINE]	–	–	–	IC50 [1]: Not Active; IC50 (Chymotrypsinogen A [2]): 175 µM; Cmax [3]: 0.184 µM
N=C(N)N/N=C/c1c(Cl)cccc1Cl	< 5	83	20	–
NS(=O)(=O)c1cc(C2(O)NC(=O)c3ccccc32)ccc1Cl (stereo unspecified)	< 5	< 5	–	inhibition [7]: < 5%
Cc1c(OCC(F)(F)F)ccnc1C[S+]([O-])c1nc2ccccc2[nH]1 (stereo unspecified)	< 5	< 5	< 5	–
O=C(O)CCc1nc(-c2ccccc2)c(-c2ccccc2)o1 [OXAPROZIN]	–	–	–	IC50 (Chymotrypsinogen A [8]): Increase; IC50 (Chymotrypsinogen A [2]): 200 µM; IC50 (Beta-lactamase [9]): > 400 µM; Cmax [3]: 372 µM
Clc1ccc(CSC(Cn2ccnc2)c2ccc(Cl)cc2Cl)cc1 (stereo unspecified) [SULCONAZOLE]	–	–	–	IC50 (Chymotrypsinogen A [2]): 110 µM
Cc1cccc(Nc2ccncc2S(=O)(=O)NC(=O)NC(C)C)c1	< 5	< 5	14	–
Nc1cc(-c2ccncc2)c[nH]c1=O	< 5	< 5	–	inhibition [10]: < 5%
CC(=O)N(O)CCCCCNC(=O)CCC(=O)N(O)CCCCCNC(=O)CCC(=O)N(O)CCCCCN	< 5	< 5	< 5	–
COc1cc(Cc2cnc(N)nc2N)cc(OC)c1OC	< 5	< 5	< 5	–
Nc1nnc(-c2cccc(Cl)c2Cl)c(N)n1	< 5	< 5	11	–
CCCC(C)(COC(N)=O)COC(=O)NC(C)C (stereo unspecified)	< 5	< 5	< 5	–
COc1cc2nc(N3CCN(C(=O)c4ccco4)CC3)nc(N)c2cc1OC	< 5	13	–	inhibition [11]: 14%
Nc1nc2ccc(OC(F)(F)F)cc2s1	< 5	< 5	–	inhibition [7]: < 5%
CCc1cccc2c3c([nH]c12)C(CC)(CC(=O)O)OCC3 (stereo unspecified)	< 5	< 5	9	–
Nc1ccc(/N=N/c2ccccc2)c(N)n1	96	< 5	34	–
COc1ccc2c(c1)c(CC(=O)O)c(C)n2C(=O)c1ccc(Cl)cc1	< 5	< 5	7	–
COC(=O)Nc1nc2cc(C(=O)c3ccccc3)ccc2[nH]1	< 5	< 5	15	–
NS(=O)(=O)c1cc(C(=O)O)c(NCc2ccco2)cc1Cl	< 5	< 5	21	–
Clc1ccc(COC(Cn2ccnc2)c2ccc(Cl)cc2Cl)cc1 (stereo unspecified) [ECONAZOLE]	–	–	–	IC50 (Chymotrypsinogen A [2]): 150 µM; IC50 (Beta-lactamase [9]): 25 µM
CN(C)CCN(Cc1ccccc1)c1ccccn1	< 5	< 5	< 5	–
NC(=O)N1c2ccccc2C=Cc2ccccc21	< 5	< 5	8	–
CC(C)[N+](C)(CCOC(=O)C1c2ccccc2Oc2ccccc21)C(C)C	–	< 5	< 5	inhibition [12]: 96%
Cc1nccn1CC1CCc2c(c3ccccc3n2C)C1=O (stereo unspecified)	< 5	< 5	< 5	–
O=C1C(CC[S+]([O-])c2ccccc2)C(=O)N(c2ccccc2)N1c1ccccc1 (stereo unspecified)	27	< 5	83	–
CN(C)CCOC(c1ccccc1)c1ccccc1	< 5	< 5	< 5	–
Nc1ccc(S(=O)(=O)c2ccc(N)cc2)cc1	< 5	< 5	11	–
O=C1CN(/N=C/c2ccc([N+](=O)[O-])o2)C(=O)N1	91	< 5	97	–

SMILES	inhibition [4] [%]	inhibition [5] [%]	inhibition [6] [%]	other results
O=C1CCC(N2C(=O)c3ccccc3C2=O)C(=O)N1 (stereo unspecified)	< 5	< 5	< 5	–
O=C(O)CCCc1ccc(N(CCCl)CCCl)cc1	23	< 5	44	–
CCC1(c2ccccc2)C(=O)NCNC1=O	< 5	< 5	13	–
CCN(CC)CC(=O)Nc1c(C)cccc1C	< 5	< 5	< 5	–
O=C(O)CCCCCCCC(=O)O	< 5	< 5	8	–
Cc1ccc(C)c(OCCCC(C)(C)C(=O)O)c1	< 5	< 5	–	inhibition [7]: 14%
CC(C)C(=O)Nc1ccc([N+](=O)[O-])c(C(F)(F)F)c1	< 5	< 5	–	inhibition [11]: < 5%
Nc1ccc(O)c(C(=O)O)c1	< 5	< 5	–	inhibition [7]: 18%
O=C(OCc1ccccc1)c1ccccc1 [BENZYL BENZOATE]	–	–	–	IC50 (Chymotrypsinogen A [2]): 250 µM; IC50 (Beta-lactamase [9]): 90 µM; Topical dosage [13]: 1.2 M
Nc1ccc(S(=O)(=O)Nc2ncccn2)cc1	< 5	< 5	–	inhibition [7]: < 5%
Cc1cc2nc3c(=O)[nH]c(=O)nc-3n(C[C@H](O)[C@H](O)[C@H](O)CO)c2cc1C	< 5	< 5	–	inhibition [11]: < 5%
Nc1c2c(nc3ccccc13)CCCC2	< 5	< 5	83	–
CNCCCC1c2ccccc2C=Cc2ccccc21	< 5	< 5	< 5	–
CCn1nc(C(=O)O)c(=O)c2cc3c(cc21)OCO3	< 5	< 5	–	inhibition [10]: < 5%
Cc1oncc1C(=O)Nc1ccc(C(F)(F)F)cc1	< 5	< 5	12	–
COc1ccc2[nH]c([S+]([O-])Cc3ncc(C)c(OC)c3C)nc2c1 (stereo unspecified)	< 5	< 5	< 5	–
COc1ccc(Cl)cc1C(=O)NCCc1ccc(S(=O)(=O)NC(=O)NC2CCCCC2)cc1 [GLYBURIDE]	–	–	–	IC50 (Chymotrypsinogen A [2]): 360 µM; IC50 (Beta-lactamase [9]): 300 µM; Cmax [3]: 0.215 µM
OC(Cn1cncn1)(Cn1cncn1)c1ccc(F)cc1F [FLUCONAZOLE]	–	–	–	IC50 (Beta-lactamase [14]): Not Active; IC50 (Chymotrypsinogen A [2]): > 400 µM; IC50 (Beta-lactamase [9]): > 400 µM; IC50 (Beta-lactamase [15]): Not Active; IC50 (Beta-lactamase [16]): Not Active
CC(C)Nc1cccnc1N1CCN(C(=O)c2cc3cc(NS(C)(=O)=O)ccc3[nH]2)CC1 [DELAVIRDINE]	–	–	–	IC50 (Chymotrypsinogen A [2]): 225 µM; IC50 (Beta-lactamase [9]): 90 µM
Clc1ccccc1C(c1ccccc1)(c1ccccc1)n1ccnc1 [CLOTRIMAZOLE]	–	–	–	IC50 (Chymotrypsinogen A [8]): Increase; IC50 (Chymotrypsinogen A [2]): 85 µM; IC50 (Beta-lactamase [9]): 20 µM
COc1ccccc1OCC(O)CO (stereo unspecified)	< 5	< 5	< 5	–
Cc1cccc(Nc2ccccc2C(=O)O)c1C [MEFENAMIC ACID]	–	–	–	IC50 (Beta-lactamase [9]): 350 µM; inhibition [17]: 41%; IC50 [18]: increase; Cmax [3]: 83 µM
Nc1nc(N)c2nc(-c3ccccc3)c(N)nc2n1	< 5	< 5	–	inhibition [10]: 21%
NCCNCCNCCNCCN	< 5	< 5	< 5	–
CC(=O)N1CCN(c2ccc(OCC3COC(Cn4ccnc4)(c4ccc(Cl)cc4Cl)O3)cc2)CC1 (stereo unspecified) [KETOCONAZOLE]	–	–	–	IC50 (Beta-lactamase [14]): Not Active; IC50 (Chymotrypsinogen A [2]): > 150 µM; IC50 (Beta-lactamase [9]): > 150 µM; IC50 (Beta-lactamase [15]): Not Active; IC50 (Beta-lactamase [16]): Not Active
O=C(O)c1cc(-c2ccc(F)cc2F)ccc1O	13	< 5	< 5	–
Clc1ccc(COC(Cn2ccnc2)c2ccc(Cl)cc2Cl)c(Cl)c1 (stereo unspecified) [MICONAZOLE]	–	–	–	IC50 (Chymotrypsinogen A [2]): 125 µM; IC50 (Beta-lactamase [9]): 40 µM
